# Reference: patent US10471095B2, “Suspension of graphene oxide nanoflakes in water, its use and a method of preparation thereof” (priority 2014, dated 2019)
# Tested on: chicken embryo
# Experiment: Toxicity of graphene oxide and nano-Pt in chicken embryo (in ovo)
# Conditions: in vivo
# Description: Biological models: study was conducted on models: 1. Chicken embryo maintained by in ovo method, which above all allowed for fast, accurate and insightful observations of potential toxicity, especially embryotoxicity of graphene oxide and Pt nanoparticles of various concentrations. 2. Glioblastoma multiforme GM (U-87) cell lines in order to observe basic mechanisms occurring in the cells under the influence of graphene oxide and platinum nanoparticles and having selected the used experimental factors 3. Glioblastoma multiforme (U-87) tumour grown by in ovo method in order to confirm or reject the preliminary results. This study allowed for the final verification of formulated hypotheses.
# Step I—preliminary study—determination of potential toxic properties of graphene oxide and nano-Pt in contact with a living organism (chicken embryo) • Determination of the influence of graphene oxide and nano-Pt on homeostasis of the organism of chicken embryo (survival rate, growth and development, biochemical and morphological indicators of blood, expression of selected genes, image of microstructure and ultrastructure of the brain, apoptosis/necrosis and others). […] The study indicated a potential antitumor effect of Pt nanoparticles and a low degree of toxicity.
substance,measurement,value
graphene oxide,"toxic effects on biochemical and morphological indicators of blood, FGF, VEGF, PCNA gene expression, microstructure and ultrastructure of brain and liver",does not exhibit toxic effects
